Experiment: Radiochemical purity (RCP) of [^18F]FDG composition by TLC, stability testing
Procedure: Radiochemical purity of [^18F]FDG composition samples was determined at end of synthesis (EOS) and at Expiry i.e. after 10 hours storage at 22° C.±3° C. to determine stability of the composition.
To a series of vials was added an amount of stabilizer dissolved in Buffer.
At EOS (within 2 hours), a 100-fold dilution of the test solution was prepared by addition of a 10 μl sample to a 990 μl volume of water for injection. After mixing, a 2 μl sample was applied to a TLC strip.
At 10 hours after synthesis, a 10-fold dilution was made by addition of a 20 μl sample to a 180 μl volume of water for injection. After mixing, a 3 μl sample was applied to a TLC strip.
Within 1 to 3 hours after manufacture, radiochemical purity (RCP) was determined by TLC. The vials were stored at 22° C.±3° C. and at 10 hours after synthesis, RCP was again determined by TLC.

RCP at EOS+10 h, difference GA versus ethanol (Example 5, vial 6 versus vial 5) [%]	stabiliser quality compared with ethanol (conclusion) (Example 5, vial 6 versus vial 5, approximately 2 mg/ml stabilizer)	Structure (SMILES)	stabilising effect on [^18F]FDG composition (conclusion) (Example 1, additives 2.5-20 mg/ml acetone or ethanol, 3-6 mg/ml gentisic acid)	effect of increasing amounts of gentisic acid on stabilisation of [^18F]FDG (Examples 2-4, batches <50 GBq at EOS, ranges 0.1-0.5, 0.5-1 and 1-2 mg/ml)
–	–	CC(C)=O [Acetone, reference compound]	slight stabilising effect	–
1	better stabiliser than ethanol	O=C(O)c1cc(O)ccc1O [gentisic acid, 2,5-dihydroxybenzoic acid]	–	the higher amount was found to be more effective
